Values of other authors, collected in article PMC9186412, “Rational Framework for the Design of Trp- and Arg-Rich Peptide Antibiotics Against Multidrug-Resistant Bacteria” (Frontiers in Microbiology, 2022).
Like-named read-outs stand apart in the source and are kept apart here.

Assays:
[1] = system: CDC AR isolates; design: key: S (green), susceptible; I (blue), intermediate; R (red), resistant; conditions: data provided by the CDC, ref CDC, cited from earlier work
Description: Supplement Table_3.XLSX, sheet "CDC AR isolates profiles" | column: G(-) strains

[2] = system: CDC AR isolates; design: key: S (green), susceptible; I (blue), intermediate; R (red), resistant; conditions: data provided by the CDC, ref CDC, cited from earlier work; remark: listed apart in the source
[3] = Staphylococcus aureus SA462, CDC AR isolate
[4] = Staphylococcus aureus SA463, CDC AR isolate
[5] = Staphylococcus aureus SA561, CDC AR isolate
[6] = Staphylococcus aureus SA461, CDC AR isolate
[7] = Enterococcus faecium EF500, CDC AR isolate
[8] = Enterococcus faecium EF671, CDC AR isolate
[9] = Enterococcus faecium EF672, CDC AR isolate
[10] = Enterococcus faecium EF673, CDC AR isolate
[11] = Enterobacter cloacae E62, CDC AR isolate
[12] = Enterobacter cloacae E544, CDC AR isolate
[13] = Enterobacter cloacae E545, CDC AR isolate
[14] = Enterobacter cloacae E546, CDC AR isolate
[15] = Escherichia coli EC541, CDC AR isolate
[16] = Escherichia coli EC543, CDC AR isolate
[17] = Escherichia coli EC544, CDC AR isolate
[18] = Escherichia coli EC549, CDC AR isolate
[19] = Klebsiella pneumoniae KP542, CDC AR isolate
[20] = Klebsiella pneumoniae KP548, CDC AR isolate
[21] = Klebsiella pneumoniae KP550, CDC AR isolate
[22] = Klebsiella pneumoniae KP552, CDC AR isolate
[23] = Acinetobacter baumannii AB273, CDC AR isolate
[24] = Acinetobacter baumannii AB274, CDC AR isolate
[25] = Acinetobacter baumannii AB275, CDC AR isolate
[26] = Acinetobacter baumannii AB276, CDC AR isolate

Compound | Antibiotic susceptibility profile [1, 3] | Antibiotic susceptibility profile [1, 4] | Antibiotic susceptibility profile [1, 5] | Antibiotic susceptibility profile [2, 6] | Antibiotic susceptibility profile [1, 7] | Antibiotic susceptibility profile [1, 8] | Antibiotic susceptibility profile [1, 9] | Antibiotic susceptibility profile [2, 10] | Antibiotic susceptibility profile [1, 11] | Antibiotic susceptibility profile [1, 12] | Antibiotic susceptibility profile [1, 13] | Antibiotic susceptibility profile [1, 14] | Antibiotic susceptibility profile [1, 15] | Antibiotic susceptibility profile [1, 16] | Antibiotic susceptibility profile [1, 17] | Antibiotic susceptibility profile [1, 18] | Antibiotic susceptibility profile [1, 19] | Antibiotic susceptibility profile [1, 20] | Antibiotic susceptibility profile [1, 21] | Antibiotic susceptibility profile [1, 22] | other results
CCC[C@@H]1C[C@@H](C(=O)N[C@@H]([C@H]2O[C@H](SC)[C@H](O)[C@@H](O)[C@H]2O)[C@H](C)Cl)N(C)C1 [Clindamycin] | S | S | S | R |  |  |  |  |  |  |  |  |  |  |  |  |  |  |  |  | 
CO[C@H]1/C=C/O[C@@]2(C)Oc3c(C)c(O)c4c(O)c(c(/C=N/N5CCN(C)CC5)c(O)c4c3C2=O)NC(=O)/C(C)=C\C=C\[C@H](C)[C@H](O)[C@@H](C)[C@@H](O)[C@@H](C)[C@H](OC(C)=O)[C@@H]1C [Rifampin] | S | S |  | S | R | I | I | S |  |  |  |  |  |  |  |  |  |  |  |  | 
C[C@H]1c2cccc(O)c2C(=O)C2=C(O)[C@]3(O)C(=O)C(C(N)=O)=C(O)[C@@H](N(C)C)[C@@H]3[C@@H](O)[C@@H]21 [Doxycycline] | S | S | I | S | I | S | I | S |  |  |  |  |  |  |  |  |  |  |  |  | 
Penicillin | R | R | R | S | R | S | S | S |  |  |  |  |  |  |  |  |  |  |  |  | 
CN[C@H](CC(C)C)C(=O)N[C@H]1C(=O)N[C@@H](CC(N)=O)C(=O)N[C@H]2C(=O)N[C@H]3C(=O)N[C@H](C(=O)N[C@H](C(=O)O)c4cc(O)cc(O)c4-c4cc3ccc4O)[C@H](O)c3ccc(c(Cl)c3)Oc3cc2cc(c3O[C@@H]2O[C@H](CO)[C@@H](O)[C@H](O)[C@H]2O[C@H]2C[C@](C)(N)[C@H](O)[C@H](C)O2)Oc2ccc(cc2Cl)[C@H]1O [Vancomycin] | I | S | S | S | S | S | S | S |  |  |  |  |  |  |  |  |  |  |  |  | 
CO[C@@]1(NC(=O)Cc2cccs2)C(=O)N2C(C(=O)O)=C(COC(N)=O)CS[C@@H]21 [Cefoxitin] | R | R | R | R |  |  |  |  | R | R | R | R | S | R | R | R | R | R | R | R | 
CCO/N=C(\C(=O)N[C@@H]1C(=O)N2C(C(=O)[O-])=C(Sc3nc(-c4cc[n+](C)cc4)cs3)CS[C@H]12)c1nsc(N)n1 [Ceftaroline] | S | S | S | S |  |  |  |  |  |  |  |  | R | R | R | R |  |  |  |  | 
Nc1nc(-n2cc(C(=O)O)c(=O)c3cc(F)c(N4CC(O)C4)c(Cl)c32)c(F)cc1F [Delafloxacin] |  |  |  |  |  | S | S | S |  |  |  |  |  |  |  |  |  |  |  |  | 
CC1(C)S[C@@H]2[C@H](NC(=O)[C@H](N)c3ccccc3)C(=O)N2[C@H]1C(=O)O [Ampicillin] |  |  |  |  | R | S | S | S | R | R | R | R | R | R | R | R | R | R | R | R | Antibiotic susceptibility profile [1, 23]: R; Antibiotic susceptibility profile [1, 24]: R; Antibiotic susceptibility profile [1, 25]: R; Antibiotic susceptibility profile [1, 26]: R
CCCCCCCCCC(=O)N[C@@H](Cc1c[nH]c2ccccc12)C(=O)N[C@H](CC(N)=O)C(=O)N[C@@H](CC(=O)O)C(=O)N[C@@H]1C(=O)NCC(=O)N[C@@H](CCCN)C(=O)N[C@@H](CC(=O)O)C(=O)N[C@H](C)C(=O)N[C@@H](CC(=O)O)C(=O)NCC(=O)N[C@H](CO)C(=O)N[C@@H]([C@H](C)CC(=O)O)C(=O)N[C@@H](CC(=O)c2ccccc2N)C(=O)O[C@@H]1C [Daptomycin] |  | S |  | S | S | S | S | S |  |  |  |  |  |  |  |  |  |  |  |  | 
NCC[C@H](O)C(=O)N[C@@H]1C[C@H](N)[C@@H](O[C@H]2O[C@H](CN)[C@@H](O)[C@H](O)[C@H]2O)[C@H](O)[C@H]1O[C@H]1O[C@H](CO)[C@@H](O)[C@H](N)[C@H]1O [Amikacin] |  |  |  |  |  |  |  |  | S | S | S | R | R | S | S | S | R | S | S | S | Antibiotic susceptibility profile [1, 23]: R; Antibiotic susceptibility profile [1, 24]: S; Antibiotic susceptibility profile [1, 25]: R; Antibiotic susceptibility profile [1, 26]: I; Antibiotic susceptibility profile ([1]; Pseudomonas aeruginosa PA229, CDC AR isolate): S; Antibiotic susceptibility profile ([1]; Pseudomonas aeruginosa PA230, CDC AR isolate): R; Antibiotic susceptibility profile ([1]; Pseudomonas aeruginosa PA231, CDC AR isolate): S; Antibiotic susceptibility profile ([1]; Pseudomonas aeruginosa PA232, CDC AR isolate): S; Antibiotic susceptibility profile ([1]; Pseudomonas aeruginosa PA239, CDC AR isolate): R
CN(C)c1cc(NC(=O)CNC(C)(C)C)c(O)c2c1C[C@H]1C[C@H]3[C@H](N(C)C)C(O)=C(C(N)=O)C(=O)[C@@]3(O)C(O)=C1C2=O [Tigecycline] |  |  |  |  |  |  |  |  | S | R | R | S | S | S | S | S | S | I | S | S | 
CN(C)c1cc(CNCC(C)(C)C)c(O)c2c1C[C@H]1C[C@H]3[C@H](N(C)C)C(O)=C(C(N)=O)C(=O)[C@@]3(O)C(O)=C1C2=O [Omadacycline] |  |  |  |  |  |  |  |  |  |  |  |  |  |  |  |  | R | R | R | S | 
